# Test results as given in patent US20240409557A1, “5,6-FUSED AND 6,6-FUSED BICYCLIC ALCOHOLS AND ETHERS AND COMPOSITIONS FOR USE AS 15-PROSTAGLANDIN DEHYDROGENASE MODULATORS” (AMGEN INC., priority 2023, published 2024).
# Assays:
# [1] = biological target: T1, human recombinant 15-PGDH (Homo sapiens, UniProt P15428); experiment: Recombinant 15-PGDH enzymatic inhibition assay (PGDH-Lumi, NADH signal); type: biochemical; conditions: for IC50: recombinant 15-PGDH, 15 min pre-incubation, 60 min reaction with PGE2 and NAD+, NADH signal
# T1 sequence (P15428 1-266): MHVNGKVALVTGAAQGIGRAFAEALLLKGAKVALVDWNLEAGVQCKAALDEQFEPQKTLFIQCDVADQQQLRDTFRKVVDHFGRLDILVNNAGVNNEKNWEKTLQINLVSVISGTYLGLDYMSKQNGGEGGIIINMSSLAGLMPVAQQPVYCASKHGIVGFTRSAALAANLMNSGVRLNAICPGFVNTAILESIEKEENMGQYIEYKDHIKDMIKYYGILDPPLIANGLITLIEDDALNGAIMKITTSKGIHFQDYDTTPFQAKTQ
# Method in brief: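 Recombinant 15-PGDH pre-incubated 15 min at room temperature with compound (22 concentrations, 2-fold dilutions) in 50 mM Tris pH 7.5, 0.01% Tween-20, […].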
# 15-PGDH in A549 cells = biological target: T2, 15-PGDH in A549 cells (Homo sapiens, UniProt P15428); experiment: A549 cellular 15-PGDH assay (PGE2 accumulation, HTRF); type: cell-based; conditions: interleukin-stimulated, inhibitor 24 hrs, PGE2 by competitive HTRF, read-out: A549 Cell Assay IC50
# T2 construct: endogenous in cells; host or cells: A549
# T2 sequence (P15428 1-266): T1 sequence (P15428 1-266)
# Method in brief: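 IL-13-stimulated A549 lung carcinoma cells released PGE2, which was measured in supernatants by competitive HTRF with a Eu-cryptate anti-PGE2 antibody and labelled PGE2. Signal falls as PGE2 rises. IC50 values were derived from the binding data.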
# [2] = system: DSS-induced colitis in C57BL/6 female mice; experiment: In vivo mouse DSS study - colon length; conditions: for Colon length Mean: oral gavage, day 10; for Recovery % (vs vehicle) / Reduction % (vs naïve): colon length
# Method: In this study, 12-week-old C57BL/6 female mice (Taconic, the Cambridge City) were supplemented with 2.5% DSS (MP Biomedicals, MW 36,000-50,000) in drinking water for days 0-7, and then switched to normal drinking water beginning on day 7 and continued through day 10. Mice were treated once/twice daily by oral gavage with different compounds of Formula (A) (e.g., B15S, B15R, B30R, or B41R) in different dosing levels or with vehicle solution of 2% HPMC, 1% Tween 80 (w/v) in DI water starting on day 0. Mice were sacrificed on day 10 for assessment of colon length. The DSS-induced model of colitis is a widely used animal model for studying the pathogenesis of and potential treatments for UC, which is a primary form of IBD. DSS water intake causes colonic mucosa injury and erosion, gland loss, and infiltration of proinflammatory immune cells in the colon tissue, followed by mucosal repair and tissue remodeling. This is manifested by a shortened colon, the degree of which correlates well with the severity of mucosal injury in this mouse model of DSS-induced experimental colitis.
# [3] = system: DSS-induced colitis in C57BL/6 mice; experiment: In vivo mouse DSS study - histopathological analysis of colon; conditions: versus DSS + vehicle
# Method: Histopathological analysis was performed on the […] mice from the DSS study described above. Analysis was performed on mice from the B15R, B30R, or B41R groups. Briefly, mouse colon tissues were collected at necropsy, flushed with PBS, manipulated intact into individual modified Swiss rolls, placed into separate tissue cassettes and fixed for approximately 24 hours by immersion in 10% neutral buffered formalin followed by transfer to […]. Fixed tissues were routinely processed, paraffin-embedded, sectioned, mounted on glass slides and hematoxylin and eosin stained. Glass slides were scanned and digital images were accessed for histopathology evaluation. Prior to histopathology assessment, metadata for all digital images reviewed was exported from a digital pathology platform database into an Excel spreadsheet, followed by assignment of each digital image with a random number (greater than 0 and less than 1) using the RAND function in Excel. From smallest to largest random number assigned, each digital image was retrieved for evaluation using only the RTLIMS Inventory Code as the unique identifier for each digital image. Each digital image was individually reviewed without knowledge of treatment group (blinded/masked evaluation), and with the slide label image hidden when viewing digital images. […] Scoring of tissues for DSS-induced colitis was performed using a scoring system and criteria modified and adapted from BolderBioPATH, Inc./Inotiv. Ordinal data (histopathology scores) were analyzed using a non-parametric Kruskal-Wallis one-way analysis of variance test followed by a Dunn's multiple comparison test (GraphPad Prism).
# The following scoring systems were used to provide histological scores: […]
Structure (SMILES),IC50 [1],IC50 (15-PGDH in A549 cells),"Colon length Mean ([2]; 0.625 mpk, BID)","Colon length Mean ([2]; 1.25 mpk, QD)","Colon length Mean ([2]; 2.5 mpk, BID)","Colon length Mean ([2]; 5 mpk, QD)","Recovery % (vs vehicle) ([2]; 0.625 mpk, BID)","Reduction % (vs naïve) ([2]; 0.625 mpk, BID)","Recovery % (vs vehicle) ([2]; 1.25 mpk, QD)","Reduction % (vs naïve) ([2]; 1.25 mpk, QD)","Recovery % (vs vehicle) ([2]; 2.5 mpk, BID)","Reduction % (vs naïve) ([2]; 2.5 mpk, BID)","Recovery % (vs vehicle) ([2]; 5 mpk, QD)","Reduction % (vs naïve) ([2]; 5 mpk, QD)",erosion scores ([3]; all doses evaluated),inflammation scores ([3]; all doses evaluated),sum of histopathology scores ([3]; all doses evaluated),also measured
"Cn1cc2cc(-c3ccc4cc([C@H](O)C5CCOCC5)sc4n3)cnc2n1 (single isomer, unassigned) [Compound B15R]",0.401 nM,0.561 nM,7.6 cm,7.84 cm,8.09 cm,7.89 cm,42.29%,14.97%,57.64%,12.28%,63.43%,8.09%,54.80%,11.72%,decreased severity,decreased severity,decreased severity,colon length comparing to vehicle group ([2]; different doses daily): significant improvement of colon length; gland loss scores ([3]; all doses evaluated): decreased severity
"Cn1nnc2cc(-c3ccc4cc([C@H](O)C5CCOCC5)sc4n3)cnc21 (single isomer, unassigned) [Compound B41R]",0.955 nM,2.16 nM,–,–,–,–,–,–,–,–,–,–,–,–,decreased severity,decreased severity,decreased severity,"colon length comparing to vehicle group ([2]; 2.5 mg/kg and 10 mg/kg daily): significant improvement of colon length; Colon length Mean ([2]; 0.1 mpk, QD): 7.0 cm; Colon length Mean ([2]; 0.25 mpk, QD): 6.8 cm; Colon length Mean ([2]; 0.625 mpk, QD): 7.3 cm; Colon length Mean ([2]; 2.5 mpk, QD): 7.3 cm; Colon length Mean ([2]; 10 mpk, QD): 7.9 cm; Recovery % (vs vehicle) ([2]; 0.1 mpk, QD): 25.46%; Reduction % (vs naïve) ([2]; 0.1 mpk, QD): 14.63%; Recovery % (vs vehicle) ([2]; 0.25 mpk, QD): 11.18%; Reduction % (vs naïve) ([2]; 0.25 mpk, QD): 17.44%; Recovery % (vs vehicle) ([2]; 0.625 mpk, QD): 40.99%; Reduction % (vs naïve) ([2]; 0.625 mpk, QD): 11.59%; Recovery % (vs vehicle) ([2]; 2.5 mpk, QD): 45.34%; Reduction % (vs naïve) ([2]; 2.5 mpk, QD): 10.73%; Recovery % (vs vehicle) ([2]; 10 mpk, QD): 82.06%; Reduction % (vs naïve) ([2]; 10 mpk, QD): 3.52%; gland loss scores ([3]; at 0.1 mg/kg QD and >0.625 mg/kg QD): decreased severity"
"Cn1cc2cc(-c3ccc4cc([C@@H](O)C5CCOCC5)sc4n3)cnc2n1 [Compound B15S, (S)-(6-(2-methyl-2H-pyrazolo[3,4-b]pyridin-5-yl)thieno[2,3-b]pyridin-2-yl)(tetrahydro-2H-pyran-4-yl)methanol]",150 nM,0.499 nM,6.51 cm,6.60 cm,6.52 cm,6.90 cm,13.4%,24.8%,17.0%,23.7%,13.7%,24.7%,29.0%,20.3%,–,–,–,"times less potent than B15R in the biochemical assay ([1]; S-enantiomer versus R-enantiomer): around 200; colon length comparing to vehicle group ([2]; 5 mg/kg and 20 mg/kg once daily): significant improvement of colon length; Colon length Mean ([2]; 20 mpk, QD): 6.97 cm; Recovery % (vs vehicle) ([2]; 20 mpk, QD): 31.9%; Reduction % (vs naïve) ([2]; 20 mpk, QD): 19.5%"
"Cn1cc2cc(-c3ccc4cc([C@H](O)C5CC(F)(F)C5)sc4n3)cnc2n1 (single isomer, unassigned) [Compound B30R]",0.159 nM,0.233 nM,7.622 cm,7.733 cm,7.780 cm,8.360 cm,56.343%,9.413%,62.467%,8.093%,65.039%,7.538%,97.008%,0.645%,decreased severity,decreased severity,decreased severity,"Colon length Mean ([2]; 10 mpk, QD): 8.110 cm; Colon length Mean ([2]; 20 mpk, QD): 8.188 cm; Recovery % (vs vehicle) ([2]; 10 mpk, QD): 83.228%; Reduction % (vs naïve) ([2]; 10 mpk, QD): 3.616%; Recovery % (vs vehicle) ([2]; 20 mpk, QD): 87.5%; Reduction % (vs naïve) ([2]; 20 mpk, QD): 2.265%; colon length comparing to vehicle group ([2]; different doses daily): significant improvement of colon length; gland loss scores ([3]; at 0.625 mg/kg BID, 1.25 mg/kg QD, 2.5 mg/kg BID and 5 mg/kg QD): decreased severity"
"Cn1nnc2cc(-c3ccc4ccc([C@H](O)C5CCOCC5)cc4n3)cnc21 (single isomer, unassigned) [Compound D3R]",21700 nM,289 nM,–,–,–,–,–,–,–,–,–,–,–,–,–,–,–,–
"Cc1cn2cc(-c3ccc4cc(C5(O)CC(F)(F)C5)sc4n3)ccc2n1 [Compound C37, 3,3-difluoro-1-(6-(2-methylimidazo[1,2-a]pyridin-6-yl)thieno[2,3-b]pyridin-2-yl)cyclobutanol]",9.01 nM,2.28 nM,–,–,–,–,–,–,–,–,–,–,–,–,–,–,–,–
"CO[C@H]1C[C@@H]([C@H](O)c2cc3ccc(-c4cnc5nn(C)cc5c4)nc3s2)C1 (single isomer, unassigned) [Compound B88SC]",10.1 nM,0.522 nM,–,–,–,–,–,–,–,–,–,–,–,–,–,–,–,–
